Assay results as given in patent publication US20110136868A1, “AGENTS FOR INHIBITING OSTEOCLASTOGENESIS AND/OR OSTEOCLAST ACTIVATION” (University of Oxford, priority 2009, published 2011).
Entries after “also recorded” stand apart in the source; their conditions may differ.

What was measured:
Mouse bone marrow cells [1] = assay: in vitro RANKL-dependent osteoclastogenesis, TRAP positive osteoclast count; format: cell-based
Protocol: Cultures on plastic plates were fixed and stained for TRAP (tartrate resistant acid […]). TRAP positive multi-nuclear (>3 nuclei) osteoclast cells were counted.
B. Mouse bone marrow cells were cultured in the presence of 25 ng/ml M-CSF with 50 ng/ml RANKL in 48-well plates. On day 3 d-PDMP (1.25, 5 or 20 μM), NB-DNJ, NB-DGJ, or N-OD-DNJ (5, 50, or 500 μM) were added. Cells were cultured for another 24 hours before fixed and stained for TRAP. TRAP positive osteoclast cells mature were counted on day 4 (left). Morphology of 4 day osteoclasts.

[2] = system: RAW 264.7 murine macrophage cells; assay: Association of TRAF6 and Src with lipid rafts, sucrose gradient fractionation; format: cell-based; settings: 50 ng/ml RANKL, 4 days
Protocol: Localization of TRAF6, […] GM1 gangliosides in lipid rafts (fraction 3-5) or non-raft fractions (fraction 7-9) in RAW 264.7 murine macrophage cells were cultured in medium only (control), in the presence of 50 ng/ml RANKL or RANKL+NB-DNJ in 48-well plates for 4 days. Cell lysates were prepared and separated using discontinuous sucrose gradient ultracentrifugation. A total of 9 fractions (1 ml each) were collected from the top to the bottom of the gradients, fraction 2 to 5 were positive for GM1 gangliosides, i.e. contained lipid rafts. The non-raft fractions were 7 to 9. Without RANKL, TRAF6 localises in the non-raft fraction while Src is presented in both raft and nonraft fractions. After RANKL treatment, TRAF6 was detected in raft fraction and Src almost totally shifted into the raft fractions.

[3] = system: MAPK signaling (ERK, p38, JNK); assay: MAPK signalling during osteoclastogenesis, immunoblot pERK1/2, pP38, pJNK after RANKL or M-CSF; format: cell-based, mouse; settings: BMCs day 3, serum starved overnight
Protocol: (§1) BMCs were cultured to day 3 then starved in 0.5% serum medium overnight. Cells were treated with RANKL (A) or M-CSF (B) for the time points indicated and then immunoblotted with α-pERK1/2, α-pP38, α-pJNK antibodies. Membranes were stripped and restained with α-ERK, α-P38, α-JNK antibodies. […] Overnight serum starved OC were treated as indicated as subsequently stained with anti-NFATc1 and viewed by immunofluorescent microscopy. NB-DNJ abrogated the M-CSF+RANKL-induced accumulation of NFAtc1 in the nyclei. (D) BMCs were cultured 48 h with different combination of M-CSF, RANKL and NB-DNJ. Cells were collected and nuclear protein extracted and NFATc1 expression was checked by Western blot. Staining of histone-1 served as loading control.

osteoclast activation [4] = assay: in vivo RANKL-induced OC activation, serum CTX levels; parameters: species or system mice; settings: NB-DNJ 500 mg/Kg i.p. daily, RANKL 4 mg/day i.p. from day 3
β-glucosidase = settings: Platt et al. 1994; cited from earlier work
α-glucosidase = settings: Platt et al. 1994; cited from earlier work
[5] = system: MAPK signaling (ERK, p38, JNK); assay: GM3-induced ERK, P38, JNK phosphorylation in OC, immunoblot; format: cell-based, mouse
Protocol: D. OC were cultured with M-CSF+RANKL to day 3 then starved in 0.5% serum medium overnight. Cells were treated with GM3 or GM3+NB-DNJ for the time points indicated and then immunoblotted with α-pERK1/2, α-pP38, α-pJNK antibodies. Membranes were stripped and restained with α-ERK, α-P38, α-JNK antibodies.

[6] = system: human, monocyte-derived OC; assay: RANKL- and M-CSF-dependent development of human monocyte-derived OC; format: cell-based; settings: added either in the beginning or during OC differentiation cultures
NFATc1 = NFATc1 nuclear accumulation in OC (immunofluorescence, Western blot of nuclear protein); format: cell-based, mouse
Protocol: as §1

osteoclast activation [7] = assay: in vivo alpha-galactosylceramide-induced OC activation, serum CTX levels; parameters: species or system C57BL/6 mice
Protocol: NB-DNJ (500 mg/Kg) or PBS were injected intraperitoneal (i.p.) once a day for 6 consecutive days in 8 wk old C57BL/6 mice. Alpha-galactosylceramide or PBS was administered by a single i.p. injection of 2 μg on day 3. Serum collected on day 7 was used to determine carboxyterminal cross-linking telopeptide of type 1 collagen (CTX) levels (n=4-5 8 wk old female C57BL/6 mice).

[8] = biological target: T1, ceramide glucosyltransferase (CGT) (Homo sapiens, UniProt Q16739); settings: literature; cited from earlier work
T1 sequence (Q16739 1-394): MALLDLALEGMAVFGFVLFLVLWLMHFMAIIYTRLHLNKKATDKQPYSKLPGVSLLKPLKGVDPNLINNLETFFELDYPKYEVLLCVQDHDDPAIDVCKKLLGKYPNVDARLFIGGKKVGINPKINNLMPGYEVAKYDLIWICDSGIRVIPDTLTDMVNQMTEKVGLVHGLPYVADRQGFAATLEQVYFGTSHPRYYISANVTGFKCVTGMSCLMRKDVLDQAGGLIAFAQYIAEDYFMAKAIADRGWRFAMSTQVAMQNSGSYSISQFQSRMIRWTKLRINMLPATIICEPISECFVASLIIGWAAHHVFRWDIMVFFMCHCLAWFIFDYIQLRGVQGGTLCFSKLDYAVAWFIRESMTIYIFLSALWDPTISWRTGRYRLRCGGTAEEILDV

osteoclast formation = settings: Iwamoto et al. 2001, cited from earlier work
Mouse bone marrow cells [9] = assay: Promotion of osteoclastogenesis by GM3 and IGF-1 with M-CSF and RANKL, TRAP positive mature osteoclast count; format: cell-based
Protocol: A. Mouse bone marrow cells were cultured in the presence of 25 ng/ml M-CSF with 50 ng/ml RANKL and GM3 (0.05, 0.5 or 5 μM) in 48-well plates for 4 days. Cultures on plastic plates were fixed and stained for TRAP. TRAP positive mature osteoclast cells were counted.
As well as RANKL+M-CSF, IGF-1 at the indicated concentrations was added.
C. […] OC were developed in the presence of RANKL+M-CSF (control), or these two cytokines plus IGF-1, GM3 or IGF-1+GM3.

CCCCN1C[C@H](O)[C@@H](O)[C@@H](O)[C@H]1CO [NB-DGJ, N-butyl-deoxygalactonojirimycin]
reduction in OC activation compared with NB-DNJ (Mouse bone marrow cells [1]): significantly less potent

CCCCN1C[C@H](O)[C@@H](O)[C@H](O)[C@H]1CO [NB-DNJ, N-butyl-deoxynojirimycin]
RANKL-induced localisation of TRAF6 and Src in lipid rafts [2]: TRAF6 and Src are excluded from the rafts | RANKL- and M-CSF-dependent phosphorylation of ERK, JNK and p38 [3]: phosphotylation of p38 and to a lesser extend of ERKa,d Jnk is observed; also recorded: significantly reduced | serum CTX levels, RANKL-induced OC activation (osteoclast activation [4]): inhibits RANKL-induced OC activation | β-glucosidase inhibitory activity (β-glucosidase): have both α- and β-glucosidase inhibitory activities | α-glucosidase inhibitory activity (α-glucosidase): have both α- and β-glucosidase inhibitory activities | GM3-promoted phosphorylation of ERK, P38 and JNK, effect of NB-DNJ [5]: abrogated | inhibition of RANKL- and M-CSF-dependent development of human monocyte-derived OC [6]: inhibit RANKL- and M-CSF-dependent development of murine as well as human, monocyte-derived OC in a dose dependent manner | inhibition of RANKL- and M-CSF-dependent development of murine OC (Mouse bone marrow cells [1]; added either in the beginning or during OC differentiation cultures): inhibit RANKL- and M-CSF-dependent development of murine as well as human, monocyte-derived OC in a dose dependent manner | nuclear NFATc1 expression (NFATc1; Western blot, BMCs cultured 48 h with M-CSF, RANKL): Considerably less nuclear NFTc1 | M-CSF+RANKL-induced accumulation of NFATc1 in the nuclei (NFATc1; immunofluorescent microscopy, serum starved OC): abrogated; also recorded: reduced localisation of NFATc in the nucleus | serum CTX levels, αGC-induced OC activation (osteoclast activation [7]; NB-DNJ 500 mg/Kg i.p. daily plus alpha-galactosylceramide 2 μg i.p. day 3, serum day 7): inhibits a-galactosylceramide-induced OC activation; also recorded: returned to baseline | serum CTX levels, NB-DNJ only (osteoclast activation [7]; mice receiving only NB-DNJ, p>0.05): not significantly different to vehicle controls

CCCCCCCCCC(=O)N[C@H](CN1CCOCC1)[C@H](O)c1ccccc1 [d-PDMP, D-threo-1-phenyl-2-decanoylamin-3-morpholino-1-propanol]
inhibitory effect on CGT [8]: known CGT inhibitor | reduction in OC activation compared with NB-DNJ (Mouse bone marrow cells [1]): as effective | inhibition of osteoclast formation / OC development (osteoclast formation): can inhibit the osteoclast formation; also recorded: can prevent OC development

CCCCCCCCCCCCCCCCCCCCCCCCCC(=O)N[C@@H](CO[C@H]1O[C@H](CO)[C@H](O)[C@H](O)[C@H]1O)[C@H](O)[C@H](O)CCCCCCCCCCCCCC [αGC, alpha-galactosylceramide]
increase of serum CTX levels (osteoclast activation [7]; mice receiving αGC, p<0.01): ~50%

IGF-1: growth factor known to promote myeloma growth and OC activation
osteoclastogenesis with IGF-1 (Mouse bone marrow cells [9]; RANKL+M-CSF plus IGF-1): promotes osteoclastogenesis | OC maturation, GM3 plus IGF-1 (Mouse bone marrow cells [9]; RANKL+M-CSF plus IGF-1 and GM3): co-operates with GM3 in promoting osteoclastogenesis

lactosylceramide
effect on RANKL-dependent osteoclastogenesis (osteoclast formation; exogenous, in vitro): synergistic effect
